This test concerns L1210 leukemia ip in BDF1 mice, survival T/C. The test is described as follows: NCI In Vivo Anticancer Drug Screen. Data for tumor model L1210 Leukemia (intraperitoneal) in B6D2F1 (BDF1) mice. Conditions: endpoint: mean survival time, higher = longer survival. In outline:
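Transplanted-tumor mice were given test agent; controls received vehicle only. Survival readings from the two groups were divided (treated over control).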

The mark [1] stands for this setting: dose: 100.0 mg/kg/injection, schedule: Q01DX001 (ip), vehicle: carboxymethylcellulose (CMC).
Where [2] appears, read: dose: 200.0 mg/kg/injection, schedule: Q01DX001 (ip), vehicle: carboxymethylcellulose (CMC).

Each structure is given as a SMILES string. Several values for one entry are separate records, joined by “and”; a condition that tells them apart may be missing. Equal values may be shown once. Toxic doses and inconclusive results are not listed.

Results on 13 molecules are retold here after PubChem BioAssay AID248 (DTP/NCI, 2004).

As to `CCOC(=O)C1CCc2c(ccc3ccccc23)N1` (stereo not drawn), the T/C was 100 % of control (dose: 50.0 mg/kg/injection, schedule: Q01DX001 (ip), vehicle: carboxymethylcellulose (CMC)); 102 % of control and 91 % of control (dose: 50.0 mg/kg/injection, schedule: Q01DX009 (ip), vehicle: carboxymethylcellulose (CMC)); 100 % of control and 106 % of control (dose: 50.0 mg/kg/injection, schedule: Q04DX002 (ip), vehicle: carboxymethylcellulose (CMC)); 105 % of control (dose: 50.0 mg/kg/injection, schedule: Q04DX003 (ip), vehicle: carboxymethylcellulose (CMC)); 105 % of control under setting [1]; 94 % of control and 112 % of control (dose: 100.0 mg/kg/injection, schedule: Q01DX009 (ip), vehicle: carboxymethylcellulose (CMC)). Moreover, the T/C by setting is: (dose: 100.0 mg/kg/injection, schedule: Q04DX002 (ip), vehicle: carboxymethylcellulose (CMC)) 100 % of control and 106 % of control; (dose: 100.0 mg/kg/injection, schedule: Q04DX003 (ip), vehicle: carboxymethylcellulose (CMC)) 107 % of control; under setting [2], 103 % of control; (dose: 200.0 mg/kg/injection, schedule: Q01DX009 (ip), vehicle: carboxymethylcellulose (CMC)) 94 % of control and 102 % of control; (dose: 200.0 mg/kg/injection, schedule: Q04DX002 (ip), vehicle: carboxymethylcellulose (CMC)) 97 % of control and 102 % of control; (dose: 200.0 mg/kg/injection, schedule: Q04DX003 (ip), vehicle: carboxymethylcellulose (CMC)) 96 % of control.

Take `CCCCOP(=O)(OCCCC)Oc1c(Cl)c(Cl)c(Cl)c(Cl)c1Cl`: the T/C is 107 % of control (dose: 100.0 mg/kg/injection, schedule: Q04DX002 (sc), vehicle: olive oil, sesame oil, peanut oil); 100 % of control (dose: 200.0 mg/kg/injection, schedule: Q04DX002 (sc), vehicle: olive oil, sesame oil, peanut oil); 104 % of control (dose: 400.0 mg/kg/injection, schedule: Q04DX002 (sc), vehicle: olive oil, sesame oil, peanut oil).

For `COc1ccc(-n2c(C)csc2=S)cc1`, the T/C (dose: 100.0 mg/kg/injection, schedule: Q04DX003 (ip), vehicle: saline with Tween-80) is 94 % of control and the T/C (dose: 200.0 mg/kg/injection, schedule: Q04DX003 (ip), vehicle: saline with Tween-80) is 97 % of control.

As for `O=C(Cl)Oc1cccc2ccccc12`, the T/C is 108 % of control (dose: 50.0 mg/kg/injection, schedule: Q01DX001 (ip), vehicle: saline); 113 % of control (dose: 100.0 mg/kg/injection, schedule: Q01DX001 (ip), vehicle: saline); 104 % of control (dose: 200.0 mg/kg/injection, schedule: Q01DX001 (ip), vehicle: saline); 98 % of control (dose: 400.0 mg/kg/injection, schedule: Q01DX001 (ip), vehicle: saline).

`Cc1cccc2c(Br)cccc12`: the T/C under setting [1] was 97 % of control; the T/C under setting [2] was 95 % of control; the T/C (dose: 400.0 mg/kg/injection, schedule: Q01DX001 (ip), vehicle: carboxymethylcellulose (CMC)) is 93 % of control.

With `CCN(CC)CCN1C(=O)c2cccc3cccc(c23)C1=O`, the T/C by setting is: (dose: 10.5 mg/kg/injection, schedule: Q03HX024 (ip), vehicle: saline) 102 % of control; (dose: 15.7 mg/kg/injection, schedule: Q03HX024 (ip), vehicle: saline) 98 % of control; (dose: 23.4 mg/kg/injection, schedule: Q03HX024 (ip), vehicle: saline) 99 % of control; (dose: 34.8 mg/kg/injection, schedule: Q03HX024 (ip), vehicle: saline) 111 % of control; (dose: 52.0 mg/kg/injection, schedule: Q03HX024 (ip), vehicle: saline) 165 % of control; (dose: 96.0 mg/kg/injection, schedule: Q01DX009 (ip), vehicle: saline) 111 % of control. Also, the T/C was 96 % of control (dose: 96.0 mg/kg/injection, schedule: Q03HX024 (ip), vehicle: saline); 103 % of control (dose: 105.0 mg/kg/injection, schedule: Q01DX001 (ip), vehicle: saline); 100 % of control (dose: 105.0 mg/kg/injection, schedule: Q04DX003 (ip), vehicle: saline); 100 % of control (dose: 157.0 mg/kg/injection, schedule: Q01DX001 (ip), vehicle: saline); 110 % of control (dose: 157.0 mg/kg/injection, schedule: Q04DX003 (ip), vehicle: saline).

In the case of `CNc1cccc(C(=O)O)c1`, the T/C is 91 % of control (dose: 100.0 mg/kg/injection, schedule: Q01DX001 (ip), vehicle: Klucel (hydroxypropylcellulose) (HPC)); 113 % of control (dose: 100.0 mg/kg/injection, schedule: Q04DX003 (ip), vehicle: Klucel (hydroxypropylcellulose) (HPC)); 102 % of control (dose: 200.0 mg/kg/injection, schedule: Q01DX001 (ip), vehicle: Klucel (hydroxypropylcellulose) (HPC)); 107 % of control (dose: 200.0 mg/kg/injection, schedule: Q04DX003 (ip), vehicle: Klucel (hydroxypropylcellulose) (HPC)); 98 % of control (dose: 400.0 mg/kg/injection, schedule: Q01DX001 (ip), vehicle: Klucel (hydroxypropylcellulose) (HPC)); 97 % of control (dose: 400.0 mg/kg/injection, schedule: Q04DX003 (ip), vehicle: Klucel (hydroxypropylcellulose) (HPC)).

Consider `CN(C)CCC(=O)c1ccc2ccccc2c1`, for which the T/C is, setting by setting: (dose: 9.38 mg/kg/injection, schedule: Q01DX001 (ip), vehicle: saline) 100 % of control; (dose: 18.75 mg/kg/injection, schedule: Q01DX001 (ip), vehicle: saline) 101 % of control; (dose: 37.5 mg/kg/injection, schedule: Q01DX001 (ip), vehicle: saline) 105 % of control.

Consider `CCOC(=O)/C=C/C(=O)O.[Fe]`, for which the T/C runs as follows: (dose: 100.0 mg/kg/injection, schedule: Q04DX003 (ip), vehicle: saline) 101 % of control; (dose: 200.0 mg/kg/injection, schedule: Q04DX003 (ip), vehicle: saline) 95 % of control; (dose: 400.0 mg/kg/injection, schedule: Q04DX003 (ip), vehicle: saline) 101 % of control.

On to `O=C(C=C(C(F)(F)F)C(F)(F)F)c1ccc(F)cc1`, for which the T/C runs as follows: (dose: 6.25 mg/kg/injection, schedule: Q01DX009 (ip), vehicle: other) 91 % of control; (dose: 6.25 mg/kg/injection, schedule: Q04DX003 (ip), vehicle: other) 95 % of control; (dose: 12.5 mg/kg/injection, schedule: Q01DX009 (ip), vehicle: other) 92 % of control; (dose: 12.5 mg/kg/injection, schedule: Q04DX003 (ip), vehicle: other) 109 % of control; (dose: 25.0 mg/kg/injection, schedule: Q01DX009 (ip), vehicle: other) 103 % of control; (dose: 25.0 mg/kg/injection, schedule: Q04DX003 (ip), vehicle: other) 97 % of control and 103 % of control.

In the case of `O=[As](O)(O[As](=O)(O)c1ccccc1)c1ccccc1`, the T/C is 103 % of control (dose: 5.0 mg/kg/injection, schedule: Q01DX001 (ip), vehicle: saline); 103 % of control (dose: 10.0 mg/kg/injection, schedule: Q01DX001 (ip), vehicle: saline); 103 % of control (dose: 20.0 mg/kg/injection, schedule: Q01DX001 (ip), vehicle: saline); 101 % of control (dose: 40.0 mg/kg/injection, schedule: Q01DX001 (ip), vehicle: saline).

`C=CC(=O)Nc1cccc(OC(=O)NC)c1`: the T/C (dose: 100.0 mg/kg/injection, schedule: Q01DX001 (ip), vehicle: saline with Tween-80) was 99 % of control; the T/C (dose: 200.0 mg/kg/injection, schedule: Q01DX001 (ip), vehicle: saline with Tween-80) was 100 % of control; the T/C (dose: 400.0 mg/kg/injection, schedule: Q01DX001 (ip), vehicle: saline with Tween-80) was 92 % of control.

As for `CCN(CC)Cc1ccccc1COC(=O)c1ccc(Cl)cc1`, the T/C is 96 % of control (dose: 100.0 mg/kg/injection, schedule: Q04DX002 (ip), vehicle: Klucel (hydroxypropylcellulose) (HPC)); 101 % of control (dose: 200.0 mg/kg/injection, schedule: Q04DX002 (ip), vehicle: Klucel (hydroxypropylcellulose) (HPC)); 88 % of control (dose: 400.0 mg/kg/injection, schedule: Q04DX002 (ip), vehicle: Klucel (hydroxypropylcellulose) (HPC)).
